Experimental data: patent US4629737A, “Secondary amines and use in pharmaceutical compositions” (Beecham Group p.l.c., priority 1982, dated 1986)
Where a name gives a salt, the structure may show the parent alone. Read-outs that look alike come from different tables or passages of the source.

Columns and labels:
[1] = Effect on energy expenditure of mice; assay type: in vivo, Female CFLP mice; conditions: Mus musculus
Description: Female CFLP mice, each weighing approximately 24 g were given food and water ad lib before and during the experiment. The compounds were dissolved in water by addition of one mole of hydrochloric acid per mole of compound and these solutions were administered orally to each of 12 mice. A further 12 mice were dosed orally with water. The mice were placed in boxes through which air was drawn and the oxygen content of the air leaving the boxes was measured. The energy expenditure of the mice was calculated for 21 hours after dosing from the volume of air leaving the boxes and its oxygen content, following the principles described by J. B. de V. Weir, J. Physiol. (London), 109, 1-9 (1949).

blood glucose = test: Hypoglycaemic activity: reduction in area under blood glucose curve after glucose load; assay type: in vivo, Female CFLP mice; conditions: Mus musculus, read-out: % Reduction in area under Blood Glucose Curve
Description: Female CFLP mice, weighing approximately 25 g, were fasted for 24 hours prior to the study. The compounds under study were administered orally as an aqueous solution to each of 6 mice. 30 minutes later a blood sample (10 μl) was obtained from the tail for the analysis of blood glucose. Immediately after taking this blood sample, glucose (1 g/Kg body weight) was administered subcutaneously to each mouse. 6 mice were given water as a control. Blood samples were then obtained from each mouse at 30 minute intervals for 120 minutes.
Compounds that produced a significant (P<0.05) reduction of blood glucose, compared with control mice given water, at any time interval, were considered active. The area under the blood glucose curve over the 2 hour period after the administration of the glucose was calculated for each compound and compared with the value for control animals.

[2] = po, 21 h, read-out: Mean Energy Expenditure (0-21 h)
[3] = po, 3 h, read-out: Mean Energy Expenditure (0-3 h)
[4] = 2.5 μmol/Kg oral, 2 h after glucose 1 g/Kg s.c., vs control
[5] = 12.5 μmol/Kg oral, 2 h after glucose 1 g/Kg s.c., vs control

## COC(=O)COc1ccc(C[C@@H](C)NC[C@H](OC)c2cccc(Cl)c2)cc1 (relative stereo) [Example 60, N-[2-(4-Carbomethoxymethoxyphenyl)-1-methylethyl]-2-methoxy-2-(3-chlorophenyl)ethanamine hydrochloride(RR,SS)diasteroisomer]
[1]; [2]
  response vs control in vivo at 8.6 mg/kg: 115%
[1]; 8.6 mg/kg po, 0-3 h, read-out: Mean Energy Expenditure (0-3 h)
  response vs control in vivo at 8.6 mg/kg: 131%
Blood glucose; 0.5 μmol/Kg oral, 2 h after glucose 1 g/Kg s.c., vs control
  inhibition in vivo at 0.5 µmol/kg: 30.5%

## COC(=O)COc1ccc(CC(C)NCC(OC)c2cccc(C(F)(F)F)c2)cc1 (stereo not drawn) [Example 2, N-[2-(4-Carbomethoxymethoxyphenyl)-1-methylethyl]-2-methoxy-2-(3-trifluoromethylphenyl)ethanamine hydrochloride]
[1]; [3]
  response vs control in vivo at 23.1 mg/kg: 124%
[1]; [2]
  response vs control in vivo at 23.1 mg/kg: 113%
Blood glucose; po, 2 h
  inhibition in vivo at 12.5 µmol/kg: 47%

## CCOC(CNC(C)Cc1ccc(OCC(=O)OC)cc1)c1cccc(Cl)c1 (stereo not drawn) [Example 3, N-[2-(4-Carbomethoxymethoxyphenyl)-1-methylethyl]-2-ethoxy-2-(3-chlorophenyl)ethanamine hydrochloride]
[1]; [3]
  response vs control in vivo at 22.1 mg/kg: 135%
[1]; [2]
  response vs control in vivo at 22.1 mg/kg: 116%
Blood glucose; po, 2 h
  inhibition in vivo at 12.5 µmol/kg: 49%

## CNC(=O)COc1ccc(CC(C)NCC(OC)c2cccc(Cl)c2)cc1 (stereo not drawn) [Example 4, N-[2-(4-Methylaminocarbonylmethoxyphenyl)-1-methylethyl]-2-methoxy-2-(3-chlorophenyl)ethanamine hydrochloride]
[1]; [3]
  response vs control in vivo at 8.5 mg/kg: 152%
[1]; [2]
  response vs control in vivo at 8.5 mg/kg: 120%
Blood glucose; po, 2 h
  inhibition in vivo at 1 µmol/kg: 54%

## COC(=O)c1ccc(CC(C)NCC(OC)c2cccc(Cl)c2)cc1 (stereo not drawn) [Example 5, N-[2-(4-Carbomethoxyphenyl)-1-methylethyl]-2-methoxy-2-(3-chlorophenyl)ethanamine hydrochloride]
[1]; [3]
  response vs control in vivo at 19.9 mg/kg: 128%
[1]; [2]
  response vs control in vivo at 19.9 mg/kg: 117%
Blood glucose; po, 2 h
  inhibition in vivo at 12.5 µmol/kg: 27%

## COC(=O)COc1cccc(CC(C)NCC(OC)c2cccc(Cl)c2)c1 (stereo not drawn) [Example 8, N-[2-(3-Carbomethoxymethoxyphenyl)-1-methylethyl]-2-methoxy-2-(3-chlorophenyl)ethanamine hydrochloride]
[1]; [3]
  response vs control in vivo at 21.4 mg/kg: 142%
[1]; [2]
  response vs control in vivo at 21.4 mg/kg: 111%
Blood glucose; po, 2 h
  inhibition in vivo at 12.5 µmol/kg: 49%

## CNCCOc1ccc(CC(C)NCC(OC)c2cccc(Cl)c2)cc1 (stereo not drawn) [Example 9, N-[2-(4-Methylaminoethoxy)phenyl)-1-methylethyl]-2-methoxy-2-(3-chlorophenyl)ethanamine dihydrochloride]
[1]; [3]
  response vs control in vivo at 22.4 mg/kg: 168%
[1]; 22.4 mg/kg po, 0-21 h, read-out: Mean Energy Expenditure (0-21 h)
  response vs control in vivo at 22.4 mg/kg: 151%
Blood glucose; [4]
  inhibition in vivo at 2.5 µmol/kg: 31%

## COC(=O)COc1ccc(CC(C)NCC(OC)c2ccccc2)cc1 (stereo not drawn) [Example 10, N-[2-(4-Carbomethoxymethoxyphenyl)-1-methylethyl]-2-methoxy-2-phenylethanamine hydrochloride monohydrate]
[1]; [3]
  response vs control in vivo at 20.6 mg/kg: 135%
[1]; [2]
  response vs control in vivo at 20.6 mg/kg: 114%
Blood glucose; po, 2 h
  inhibition in vivo at 1 µmol/kg: 24%

## CNC(=O)COc1ccc(CC(C)NCC(OC)c2ccccc2)cc1 (stereo not drawn) [Example 11, N-[2-(4-Methylaminocarbonylmethoxyphenyl)-1-methylethyl]-2-methoxy-2-phenylethanamine hydrochloride]
[1]; [3]
  response vs control in vivo at 19.6 mg/kg: 139%
[1]; [2]
  response vs control in vivo at 19.6 mg/kg: 118%
Blood glucose; po, 2 h
  inhibition in vivo at 1 µmol/kg: 42%

## COC(=O)COc1ccc(CC(C)NCC(OC)c2cccc(Br)c2)cc1 (stereo not drawn) [Example 12, N-[2-(4-Carbomethoxymethoxyphenyl)-1-methylethyl]-2-methoxy-2-(3-bromophenyl)ethanamine hydrochloride]
[1]; [3]
  response vs control in vivo at 23.6 mg/kg: 130%
[1]; [2]
  response vs control in vivo at 23.6 mg/kg: 123%
Blood glucose; po, 2 h
  inhibition in vivo at 1 µmol/kg: 51%

## CNCCOc1ccc(CC(C)NCC(OC)c2ccccc2)cc1 (stereo not drawn) [Example 13, N-[2-(4-(2-Methylaminoethoxy)phenyl)-1-methylethyl]-2-methoxy-2-phenylethanamine dihydrochloride]
[1]; [3]
  response vs control in vivo at 20.8 mg/kg: 145%
[1]; [2]
  response vs control in vivo at 20.8 mg/kg: 118%
Blood glucose; po, 2 h
  inhibition in vivo at 2.5 µmol/kg: 21%

## COC(=O)COc1ccc(CCC(C)NCC(OC)c2cccc(Cl)c2)cc1 (stereo not drawn) [Example 14, N-[3-(4-Carbomethoxymethoxyphenyl)-1-methylpropyl)-2-methoxy-2-(3-chlorophenyl)ethanamine hydrochloride]
[1]; 22.1 mg/kg po, 0-3 h, read-out: Mean Energy Expenditure (0-3 h)
  response vs control in vivo at 22.1 mg/kg: 135%
[1]; 22.1 mg/kg po, 0-21 h, read-out: Mean Energy Expenditure (0-21 h)
  response vs control in vivo at 22.1 mg/kg: 103%

## CNC(=O)COc1ccc(CC(C)NCC(OC)c2cccc(Br)c2)cc1 (stereo not drawn) [Example 15, N-[2-(4-Methylaminocarbonylmethoxyphenyl)-1-methylethyl]-2-methoxy-2-(3-bromophenyl)ethanamine hydrochloride]
[1]; [3]
  response vs control in vivo at 23.6 mg/kg: 137%
[1]; [2]
  response vs control in vivo at 23.6 mg/kg: 125%
Blood glucose; po, 2 h
  inhibition in vivo at 0.5 µmol/kg: 41%

## CCOC(CNC(C)Cc1ccc(OCC(=O)NC)cc1)c1cccc(Cl)c1 (stereo not drawn) [Example 16, N-[2-(4-Methylaminocarbonylmethoxyphenyl)-1-methylethyl]-2-ethoxy-2-(3-chlorophenyl)ethanamine hydrochloride]
[1]; [3]
  response vs control in vivo at 22.1 mg/kg: 140%
[1]; [2]
  response vs control in vivo at 22.1 mg/kg: 126%
Blood glucose; po, 2 h
  inhibition in vivo at 1 µmol/kg: 49%

## CNCCOc1ccc(CC(C)NCC(OC)c2cccc(Br)c2)cc1 (stereo not drawn) [Example 17, N-[2-(4-Methylaminoethoxy)phenyl)-1-methylethyl]-2-methoxy-2-(3-bromophenyl)ethanamine dihydrochloride]
[1]; [3]
  response vs control in vivo at 24.7 mg/kg: 142%
[1]; [2]
  response vs control in vivo at 24.7 mg/kg: 130%
Blood glucose; [4]
  inhibition in vivo at 2.5 µmol/kg: 25%

## CCOC(CNC(C)Cc1ccc(OCCNC)cc1)c1cccc(Cl)c1 (stereo not drawn) [Example 18, N-[2-(4-(2-Methylaminoethoxy)phenyl)-1-methylethyl]-2-ethoxy-2-(3-chlorophenyl)ethanamine dihydrochloride]
[1]; [3]
  response vs control in vivo at 23.2 mg/kg: 115%
[1]; [2]
  response vs control in vivo at 23.2 mg/kg: 123%
Blood glucose; po, 2 h
  inhibition in vivo at 12.5 µmol/kg: 47.5%

## COC(CNC(C)Cc1ccc(OCC(=O)N(C)C)cc1)c1cccc(Cl)c1 (stereo not drawn) [Example 19, N-[2-(4-Dimethylaminocarbonylmethoxyphenyl)-1-methylethyl]-2-methoxy-2-(3-chlorophenyl)ethanamine hydrochloride]
[1]; [3]
  response vs control in vivo at 22.1 mg/kg: 143%
[1]; [2]
  response vs control in vivo at 22.1 mg/kg: 139%
Blood glucose; po, 2 h
  inhibition in vivo at 1 µmol/kg: 56%

## COC(=O)c1ccc(CC(C)NCC(OC)c2ccccc2)cc1 (stereo not drawn) [Example 32, N-[2-(4-Carbomethoxyphenyl)-1-methylethyl]-2-methoxy-2-phenylethanamine hydrochloride hemihydrate]
Blood glucose; [5]
  inhibition in vivo at 12.5 µmol/kg: 19%

## COc1ccc(CC(C)NCC(OC)c2cccc(Cl)c2)cc1 (stereo not drawn) [Example 38, N-[2-(4-Methoxyphenyl)-1-methylethyl]-2-methoxy-2-(3-chlorophenyl)ethanamine hydrochloride]
Blood glucose; po, 2 h
  inhibition in vivo at 25 µmol/kg: 38%

## COC(=O)c1ccc(CC(C)NCC(OC)c2cccc(C(F)(F)F)c2)cc1 (stereo not drawn) [Example 45, N-[2-(4-Carbomethoxyphenyl)-1-methylethyl]-2-methoxy-2-(3-trifluoromethylphenyl)ethanamine hydrochloride hemihydrate]
Blood glucose; [5]
  inhibition in vivo at 12.5 µmol/kg: 38%

## CNC(=O)COc1ccc(CC(C)NCC(OC)c2cccc(F)c2F)cc1 (stereo not drawn) [Example 54, N-[2-(4-Methylaminocarbonylmethoxyphenyl)-1-methylethyl]-2-methoxy-2-(2,3-difluorophenyl)ethanamine dihydrochloride]
Blood glucose; po, 2 h
  inhibition in vivo at 25 µmol/kg: 40%
